# Values of other authors, collected in patent publication US9873913B2, “Mutation testing” (Roche Molecular Systems, Inc., priority 2013, dated 2018).
# Test system: non-small cell lung cancer (NSCLC) patients
# Settings: relatively small subset of NSCLC patients after chemotherapy
row,Structure (SMILES),effect on survival (in words)
1,C#Cc1cccc(Nc2ncnc3cc(OCCOC)c(OCCOC)cc23)c1 [erlotinib],prolong survival
2,COc1cc2ncnc(Nc3ccc(F)c(Cl)c3)c2cc1OCCCN1CCOCC1 [gefitinib],prolong survival
